In patent US7842808B2, “Anti-migraine spirocycles” (Bristol-Myers Squibb Company, priority 2002, dated 2010) one finds IC50 data, which are given here for 16 compounds.

The target of the experiment is T1, CGRP receptor (SK-N-MC cell membranes) (Homo sapiens, UniProt O60894+Q16602).
T1 construct: endogenous in cells; host or cells: SK-N-MC cells (membrane homogenate)
T1 sequence (Q16602 23-461): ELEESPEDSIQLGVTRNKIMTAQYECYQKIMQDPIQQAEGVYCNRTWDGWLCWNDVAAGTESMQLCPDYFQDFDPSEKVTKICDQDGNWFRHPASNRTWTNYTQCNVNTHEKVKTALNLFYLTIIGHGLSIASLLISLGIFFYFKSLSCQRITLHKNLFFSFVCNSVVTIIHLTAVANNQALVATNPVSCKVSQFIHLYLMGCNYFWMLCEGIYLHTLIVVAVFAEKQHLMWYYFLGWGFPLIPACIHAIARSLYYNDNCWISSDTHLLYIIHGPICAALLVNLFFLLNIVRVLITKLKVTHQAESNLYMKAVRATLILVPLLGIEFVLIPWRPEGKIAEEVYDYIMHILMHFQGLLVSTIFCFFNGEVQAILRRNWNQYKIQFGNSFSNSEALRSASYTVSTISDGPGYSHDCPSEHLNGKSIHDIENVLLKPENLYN
T1 sequence (O60894 27-148): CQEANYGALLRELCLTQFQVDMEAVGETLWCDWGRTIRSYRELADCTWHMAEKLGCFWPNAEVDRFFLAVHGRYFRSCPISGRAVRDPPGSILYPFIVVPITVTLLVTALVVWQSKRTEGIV
Briefly: CGRP Binding Assay ([125I]-CGRP radioligand binding, SK-N-MC homogenate). The settings on record: displacement of [125I]-CGRP, SK-N-MC homogenate; read-out: CGRP binding IC50. How it is done:
Tissue Culture. SK-N-MC cells were grown at 37° C. in 5% CO2 as a monolayer in medium consisting of MEM with Earle's salts and L-glutamine (Gibco) supplemented with 10% fetal bovine serum (Gibco).
Cell Pellets. […] The cells were transferred from plates to polypropylene tubes (16×100 mm) and homogenized using a polytron. Homogenates were centrifuged at 32,000×g for 30 min. The pellets were resuspended in cold hypotonic lysis buffer with 0.1% mammalian protease inhibitor cocktail (Sigma) and assayed for protein concentration. The SK-N-MC homogenate was then aliquoted and stored at −80° C. until needed.
Radioligand Binding Assay. The compounds of invention were solubilized and carried through serial dilutions using 100% DMSO. Aliquots from the compound serial dilutions were further diluted 25 fold into assay buffer (50 mM Tris-Cl pH 7.5, 5 mM MgCl2, 0.005% Triton X-100) and transferred (volume 50 μl) into 96 well assay plates. […] SK-N-MC pellets were thawed, diluted in assay buffer with fresh 0.1% mammalian protease inhibitor cocktail (Sigma), and homogenized again. SK-N-MC homogenate (5 μg/well) was added in a volume of 100 μl. The assay plates were then incubated at room temperature for 2 h. Assays were stopped by addition of excess cold wash buffer (20 mM Tris-Cl pH 7.5, 0.1% BSA) immediately followed by filtration over glass fiber filters (Whatman GF/B) previously soaked in 0.5% PEI. Non-specific binding was defined with 1 μM beta-CGRP. Protein bound radioactivity was determined using a gamma or scintillation counter.
For orientation: In a radioligand displacement assay an active substance lowers the binding of a labelled ligand.
Consider `CCCCN1CCN(C(=O)C(Cc2ccc3[nH]ncc3c2)NC(=O)N2CCC(N3Cc4ccccc4NC3=O)CC2)CC1` (stereo not shown) [Example 40c], for which the concentration for half-maximal inhibition (IC50) – broadly, the concentration at which inhibition is half-maximal – was above 1000 nM.
On to `O=C(Nc1ccc2ccccc2c1)N[C@@H](CC(=O)N1CCC(N2Cc3ccccc3NC2=O)CC1)C(=O)N1CCC(N2CCCCC2)CC1` [Example 135], for which the IC50 was 100 to 1000 nM.
As for `O=C(N[C@@H](CC(=O)N1CCC(N2Cc3ccccc3NC2=O)CC1)C(=O)N1CCC(N2CCCCC2)CC1)c1cccc([N+](=O)[O-])c1` [Example 113], the figure is 100 to 1000 nM; as for `Cc1nc(N[C@@H](CC(=O)N2CCC(N3Cc4ccccc4NC3=O)CC2)C(=O)N2CCC(N3CCCCC3)CC2)nc(N)c1N` [Example 91, (L)-1-[1,4′]Bipiperidinyl-1′-yl-2-(4,5-diamino-6-methyl-pyrimidin-2-ylamino)-4-[4-(2-oxo-1,4-dihydro-2H-quinazolin-3-yl)-piperidin-1-yl]-butane-1,4-dione], 100 to 1000 nM; as for `CC(C)c1ccc(NC(=O)N[C@@H](CC(=O)N2CCC(N3Cc4ccccc4NC3=O)CC2)C(=O)N2CCC(N3CCCCC3)CC2)cc1` [Example 162], 100 to 1000 nM.
Turning to `COc1ccc(OC)c(NC(=O)N[C@@H](CC(=O)N2CCC(N3Cc4ccccc4NC3=O)CC2)C(=O)N2CCC(N3CCCCC3)CC2)c1` [Example 174], the IC50 fell in the range of 100 to 1000 nM.
Regarding `Cc1cc(CC(NC(=O)N2CCC(N3Cc4ccccc4NC3=O)CC2)C(=O)OC2CCN(Cc3ccccc3)CC2)cc2cn[nH]c12` (stereo not shown) [Example 41b, 3-(7-Methyl-1H-indazol-5-yl)-2-{[4-(2-oxo-1,4-dihydro-2H-quinazolin-3-yl)-piperidine-1-carbonyl]-amino}-propionic acid 1-benzyl-piperidin-4-yl ester], the IC50 is below 10 nM.
As for `O=C(N[C@@H](CC(=O)N1CCC(N2Cc3ccccc3NC2=O)CC1)C(=O)N1CCC(N2CCCCC2)CC1)C1CC1` [Example 103], the figure is 100 to 1000 nM; as for `COc1ccc(NC(=O)N[C@@H](CC(=O)N2CCC(N3Cc4ccccc4NC3=O)CC2)C(=O)N2CCC(N3CCCCC3)CC2)cc1` [Example 181], 100 to 1000 nM; as for `O=C(Nc1ccc(F)cc1)N[C@@H](CC(=O)N1CCC(N2Cc3ccccc3NC2=O)CC1)C(=O)N1CCC(N2CCCCC2)CC1` [Example 180], 100 to 1000 nM.
For `O=C(C[C@H](NCc1c[nH]cn1)C(=O)N1CCC(N2CCCCC2)CC1)N1CCC(N2Cc3ccccc3NC2=O)CC1` [Example 98, (L)-1-[1,4′]Bipiperidinyl-1′-yl-2-[(1H-imidazol-4-ylmethyl)-amino]-4-[4-(2-oxo-1,4-dihydro-2H-quinazolin-3-yl)-piperidin-1-yl]-butane-1,4-dione], the half-inhibitory concentration (IC50) is above 1000 nM.
With `O=C(O)C(Cc1ccc2[nH]ncc2c1)NC(=O)N1CCC(N2Cc3ccccc3NC2=O)CC1` (racemic) [Example 1, (±)-3-(1H-Indazol-5-yl)-2-{[4-(2-oxo-1,4-dihydro-2H-quinazolin-3-yl)-piperidine-1-carbonyl]-amino}-propionic acid] the figure was 100 to 1000 nM; with `O=C(Nc1cccc(Br)c1)N[C@@H](CC(=O)N1CCC(N2Cc3ccccc3NC2=O)CC1)C(=O)N1CCC(N2CCCCC2)CC1` [Example 176], 10 to 100 nM; with `O=C(Nc1cccc(F)c1)N[C@@H](CC(=O)N1CCC(N2Cc3ccccc3NC2=O)CC1)C(=O)N1CCC(N2CCCCC2)CC1` [Example 177], 10 to 100 nM.
In the case of `O=C(C[C@H](NC(=O)n1c2ccccc2c2ccccc21)C(=O)N1CCC(N2CCCCC2)CC1)N1CCC(N2Cc3ccccc3NC2=O)CC1` [Example 115], the IC50 is 100 to 1000 nM.
In the case of `CN1CCN(C(=O)C(Cc2ccc3[nH]ncc3c2)NC(=O)N2CCC(N3Cc4ccccc4NC3=O)CC2)CC1` (stereo not shown) [Example 40k], the IC50 is above 1000 nM.
